Experimental data published in patent US10961215B2, “N-aryl and N-heteroaryl piperidine derivatives as liver X receptor beta agonists, compositions, and their use” (Merck Sharp & Dohme Corp., priority 2016, dated 2021).

What was measured:
[1] = target: T1, GST tagged LXRalpha LBD (ligand binding domain) (Homo sapiens, UniProt Q13133); experiment: LanthaScreen TR-FRET Liver X Receptor Coactivator Assay, LXR alpha-LBD (co-activator recruitment; IP and % Emax relative to T0901317); type: biochemical; conditions: for EC50 / LXR alpha IP (nM): Inflection Point of co-activator recruitment, LXR alpha-LBD, TR-FRET; for Emax / LXR alpha actiivty at max dose (%): efficacy at max dose in relation to reference T0901317, LXR alpha-LBD; for Emax: read-out: LXR alpha actiivty at max dose (%)
T1 construct: purchased Invitrogen pv4655
T1 sequence (Q13133 209-447 limits assumed): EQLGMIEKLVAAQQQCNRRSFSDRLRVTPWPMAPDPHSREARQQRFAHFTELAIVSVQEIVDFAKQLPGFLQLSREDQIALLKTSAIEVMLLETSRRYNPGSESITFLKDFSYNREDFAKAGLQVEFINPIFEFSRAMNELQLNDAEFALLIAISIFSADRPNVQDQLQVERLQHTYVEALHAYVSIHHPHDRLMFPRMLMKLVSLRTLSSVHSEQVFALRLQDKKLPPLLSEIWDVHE
Procedure, shortened: (§1)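 TR-FRET coactivator recruitment; LBD + cpd, then fluorescein coactivator peptide/Tb anti-GST Ab mix; RT incubation; IP and Emax vs T0901317.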

[2] = target: T2, GST tagged LXRbeta LBD (ligand binding domain) (Homo sapiens, UniProt P55055); experiment: LanthaScreen TR-FRET Liver X Receptor Coactivator Assay, LXR beta-LBD (co-activator recruitment; IP and % Emax relative to T0901317); type: biochemical; conditions: for EC50: Inflection Point of co-activator recruitment, LXR beta-LBD, TR-FRET; for Emax: read-out: LXR beta actiivty at max dose (%)
T2 construct: purchased Invitrogen pv4658.pps
T2 sequence (P55055 222-460 limits assumed): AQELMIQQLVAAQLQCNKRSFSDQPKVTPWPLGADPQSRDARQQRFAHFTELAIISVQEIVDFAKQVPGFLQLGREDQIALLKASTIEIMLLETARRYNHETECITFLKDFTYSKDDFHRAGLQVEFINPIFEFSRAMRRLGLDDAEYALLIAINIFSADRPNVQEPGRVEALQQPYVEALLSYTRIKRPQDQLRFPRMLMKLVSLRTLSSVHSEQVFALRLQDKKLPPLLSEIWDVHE
Procedure, shortened: as §1

[3] = efficacy at max dose in relation to reference T0901317, LXR beta-LBD

SMILES | EC50 [1] [nM] | Emax [1] [%] | EC50 [2] [nM] | Emax [2, 3] [%] | LXR alpha IP (nM) [1] | LXR alpha actiivty at max dose (%) [1] [%] | LXR beta actiivty at max dose (%) [2, 3] [%]
CNC(=O)c1ccc(N2CCC([C@H]3C[C@H]3CNC(=O)[C@](O)(c3ccccc3)C(F)(F)F)CC2)nc1Cl [Example 15-12, 2-chloro-N-methyl-6-(4-((1R,2R)-2-(((R)-3,3,3-trifluoro-2-hydroxy-2-phenylpropanamido)methyl)cyclopropyl)piperidin-1-yl)nicotinamide] | 3780 | 29 | 1330 | 39 |  |  | 
CN(C)C(=O)c1ccc(N2CCC([C@@H]3C[C@H]3CNC(=O)[C@@](O)(c3ccccc3)C(F)(F)F)CC2)nc1Cl [Example 15-13, 2-chloro-N,N-dimethyl-6-(4-((1S,2R)-2-(((S)-3,3,3-trifluoro-2-hydroxy-2-phenylpropanamido)methyl)cyclopropyl)piperidin-1-yl)nicotinamide] |  | 17 | 542 | 84 | No IP |  | 
CN(C)C(=O)c1ccc(N2CCC([C@@H]3C[C@H]3CNC(=O)[C@](O)(c3ccccc3)C(F)(F)F)CC2)nc1Cl [Example 15-14, 2-chloro-N,N-dimethyl-6-(4-((1S,2R)-2-(((R)-3,3,3-trifluoro-2-hydroxy-2-phenylpropanamido)methyl)cyclopropyl)piperidin-1-yl)nicotinamide] |  | 3 | 264 | 69 | No IP |  | 
CN(C)C(=O)c1ccc(N2CCC([C@@H]3C[C@H]3CN(C)C(=O)[C@](O)(c3ccccc3)C(F)(F)F)CC2)nc1Cl [Example 15-15] | 6070 | 23 | 186 | 75 |  |  | 
CN(C)C(=O)c1ccc(N2CCC([C@@H]3C[C@H]3CN(C)C(=O)[C@@](O)(c3ccccc3)C(F)(F)F)CC2)nc1Cl [Example 15-16, 2-chloro-N,N-dimethyl-6-(4-((1S,2R)-2-(((S)-3,3,3-trifluoro-2-hydroxy-N-methyl-2-phenylpropanamido)methyl)cyclopropyl)piperidin-1-yl)nicotinamide] |  | 0 | 583 | 58 | No IP |  | 
CN(C)C(=O)c1ccc(N2CCC([C@@H]3C[C@H]3CNC(=O)[C@@](O)(c3ccccc3)C(F)(F)F)CC2)cc1Cl [Example 15-17, 2-chloro-N,N-dimethyl-4-(4-((1S,2R)-2-(((S)-3,3,3-trifluoro-2-hydroxy-2-phenylpropanamido)methyl)cyclopropyl)piperidin-1-yl)benzamide] |  |  | 505 | 79 | No IP | 0 | 
CN(C)C(=O)c1ccc(N2CCC([C@@H]3C[C@H]3CNC(=O)[C@@](O)(c3ccccc3)C(F)(F)F)CC2)cc1Cl [Example 15-18, 2-chloro-N,N-dimethyl-4-(4-((1S,2R)-2-(((S)-3,3,3-trifluoro-2-hydroxy-2-phenylpropanamido)methyl)cyclopropyl)piperidin-1-yl)benzamide] |  |  | 763 |  | No IP | 8 | 66
CN(C)C(=O)c1ccc(N2CCC([C@@H]3C[C@H]3CN(C)C(=O)[C@](O)(c3ccccc3)C(F)(F)F)CC2)cc1Cl [Example 15-19, 2-chloro-N,N-dimethyl-4-(4-((1S,2R)-2-(((R)-3,3,3-trifluoro-2-hydroxy-N-methyl-2-phenylpropanamido)methyl)cyclopropyl)piperidin-1-yl)benzamide] |  | 0 | 127 | 72 | No IP |  | 
CN(C)C(=O)c1ccc(N2CCC([C@@H]3C[C@H]3CN(C)C(=O)[C@@](O)(c3ccccc3)C(F)(F)F)CC2)cc1Cl [Example 15-20, 2-chloro-N,N-dimethyl-4-(4-((1S,2R)-2-(((S)-3,3,3-trifluoro-2-hydroxy-N-methyl-2-phenylpropanamido)methyl)cyclopropyl)piperidin-1-yl)benzamide] |  | 12 | 403 | 65 | No IP |  | 
COc1cccc([C@@](O)(C(=O)N(C)CC2CC(C3CCN(c4ccc(C(=O)N(C)C)c(Cl)n4)CC3)C2)C(F)(F)F)c1 (stereo partly drawn) [Example 16-1, (R)-2-chloro-N,N-dimethyl-6-(4-(3-((3,3,3-trifluoro-2-hydroxy-2-(3-methoxyphenyl)-N-methylpropanamido)methyl)cyclobutyl)piperidin-1-yl)nicotinamide] | 1400 | 36 | 47 | 64 |  |  | 

Results, then the compound that gave them:

EC50 [1] [nM] | Emax [1] [%] | EC50 [2] [nM] | Emax [2, 3] [%] | LXR alpha IP (nM) [1] | LXR alpha actiivty at max dose (%) [1] [%] | LXR beta actiivty at max dose (%) [2, 3] [%] | SMILES
 | 14 | 18 | 76 | No IP |  |  | CN(C)C(=O)c1ccc(N2CCC([C@H]3C[C@H](N(C)C(=O)[C@](O)(c4cccc(C5CC5)c4)C(F)(F)F)C3)CC2)nc1Cl [Example 17-1, 2-chloro-6-(4-((1R,3r)-3-((R)-2-(3-cyclopropylphenyl)-3,3,3-trifluoro-2-hydroxy-N-methylpropanamido)cyclobutyl)piperidin-1-yl)-N,N-dimethylnicotinamide]
 | 10 | 33 | 43 | No IP |  |  | CN(C)C(=O)c1ccc(N2CCC([C@H]3C[C@@H](N(C)C(=O)[C@](O)(c4cccc(C5CC5)c4)C(F)(F)F)C3)CC2)nc1Cl [Example 17-2, cis-2-chloro-6-(4-(-3-((R)-2-(3-cyclopropylphenyl)-3,3,3-trifluoro-2-hydroxy-N-methylpropanamido)cyclobutyl)piperidin-1-yl)-N,N-dimethylnicotinamide]
 | 12 | 27 | 65 | No IP |  |  | COc1cccc([C@@](O)(C(=O)N(C)[C@H]2C[C@H](C3CCN(c4ccc(C(=O)N(C)C)c(Cl)n4)CC3)C2)C(F)(F)F)c1 [Example 17-3, Trans-2-chloro-N,N-dimethyl-6-(4-(-3-((R)-3,3,3-trifluoro-2-hydroxy-2-(3-methoxyphenyl)-N-methylpropanamido)cyclobutyl)piperidin-1-yl)nicotinamide]
 | 13 | 53 | 39 | No IP |  |  | COc1cccc([C@@](O)(C(=O)N(C)[C@H]2C[C@@H](C3CCN(c4ccc(C(=O)N(C)C)c(Cl)n4)CC3)C2)C(F)(F)F)c1 [Example 17-4, cis-2-chloro-N,N-dimethyl-6-(4-(-3-((R)-3,3,3-trifluoro-2-hydroxy-2-(3-methoxyphenyl)-N-methylpropanamido)cyclobutyl)piperidin-1-yl)nicotinamide]
 | 0 | 148 | 20 | No IP |  |  | CN(C)C(=O)c1ccc(N2CCC([C@H]3C[C@@H](N(C)C(=O)[C@](O)(c4cccc(OC5CC5)c4)C(F)(F)F)C3)CC2)nc1Cl [Example 17-5, Cis-2-chloro-6-(4-(-3-((R)-2-(3-cyclopropoxyphenyl)-3,3,3-trifluoro-2-hydroxy-N-methylpropanamido)cyclobutyl)piperidin-1-yl)-N,N-dimethylnicotinamide]
 | 12 | 131 | 56 | No IP |  |  | CN(C)C(=O)c1ccc(N2CCC(C[C@H]3C[C@H]3CN(C)C(=O)[C@](O)(c3ccccc3)C(F)(F)F)CC2)nc1Cl [Example 18-1, 2-chloro-N,N-dimethyl-6-(4-(((1S,2R)-2-(((R)-3,3,3-trifluoro-2-hydroxy-N-methyl-2-phenylpropanamido)methyl)cyclopropyl)methyl)piperidin-1-yl)nicotinamide]
 | 0 | 124 | 44 | No IP |  |  | COc1cccc([C@@](O)(C(=O)N(C)C[C@@H]2C[C@@H]2CC2CCN(c3ccc(C(=O)N(C)C)c(Cl)n3)CC2)C(F)(F)F)c1 [Example 18-2, 2-chloro-N,N-dimethyl-6-(4-(((1S,2R)-2-(((R)-3,3,3-trifluoro-2-hydroxy-2-(3-methoxyphenyl)-N-methylpropanamido)methyl)cyclopropyl)methyl)piperidin-1-yl)nicotinamdie]
 | 0 | 518 | 25 | No IP |  |  | COc1cccc([C@](O)(C(=O)N(C)C[C@@H]2C[C@@H]2CC2CCN(c3ccc(C(=O)N(C)C)c(Cl)n3)CC2)C(F)(F)F)c1 [Example 18-3, 2-chloro-N,N-dimethyl-6-(4-(((1S,2R)-2-(((S)-3,3,3-trifluoro-2-hydroxy-2-(3-methoxyphenyl)-N-methylpropanamido)methyl)cyclopropyl)methyl)piperidin-1-yl)nicotinamide]
